Data set [1] in a line: In vitro metabolic stability in liver microsomes (calculated Fmax). Format: in vitro ADME, human. The following applies: 1 μM, calculated maximal oral bioavailability. The method, then:
In Vitro Metabolic Stability Assays Determination of in vitro Metabolic Stability in Microsomes (Including Calculation of Hepatic in vivo Blood Clearance (CL) and of Maximal Oral Bioavailability (Fmax))
The metabolic assay was started shortly afterwards by adding the test compound to the incubation at a final volume of 1 mL. Organic solvent in the incubations was limited to ≤0.01% dimethylsulfoxide (DMSO) and ≤1% acetonitrile. […] Samples were frozen at −20° C. overnight, subsequently centrifuged for 15 minutes at 3000 rpm and the supernatant was analyzed with an Agilent 1200 HPLC-system with LCMS/MS detection.
The half-life of a test compound was determined from the concentration-time plot. From the half-life (kel: slope of concentration-time plot; half-life=In2/kel) the intrinsic clearances were calculated. Together with the additional parameters liver blood flow, specific liver weight and microsomal protein content the hepatic in vivo blood clearance (CL) and the maximal oral bioavailability (Fmax) were calculated for the different species.
(§1) Metabolic instability is often the main clearance mechanism of xenobiotica leading to a high CL and low bioavailability which may eventually result in a short half-life and a low exposure after oral administration. Thus, reducing the susceptibility of metabolic degradation usually leads to a more favourable pharmacokinetic profile. When using liver microsomes as incubation matrix main phase I metabolic reactions, typically oxidoreductive reactions by cytochrome P450 enzymes and flavin mono-oxygenases (FMO) and hydrolytic reactions by esterases/amidases/epoxidhydrolases, are described. When the incubation of the test compound is performed in a hepatocyte matrix all potential hepatic metabolic processes (phase I and phase II) are covered.

In the next data set the test system is rat hepatocytes. Kind of data set: In vitro metabolic stability in rat hepatocytes (calculated Fmax). Format: in vitro ADME, Han Wistar rats. The following applies: 1 μM, calculated maximal oral bioavailability. The method, then: Determination of in Vitro Metabolic Stability in Rat Hepatocytes (Including Calculation of Hepatic in Vivo Blood Clearance (CL))
Hepatocytes from Han Wistar rats were isolated via a 2-step perfusion method. After perfusion, the liver was carefully removed from the rat: the liver capsule was opened and the hepatocytes were gently shaken out into a Petri dish with ice-cold Williams' medium E (WME). The resulting cell suspension was filtered through sterile gaze in 50 mL falcon tubes and centrifuged at 50×g for 3 min at room temperature. The cell pellet was resuspended in 30 mL WME and centrifuged through a Percoll® gradient for 2 times at 100×g. The hepatocytes were washed again with WME and resuspended in medium containing 5% FCS. Cell viability was determined by trypan blue exclusion. […] The test compound was added to a final concentration of 1 μM. […] Samples were frozen at −20° C. overnight, subsequently centrifuged for 15 minutes at 3000 rpm and the supernatant was analyzed with an Agilent 1200 HPLC-system with LCMS/MS detection.
The half-life of a test compound was determined from the concentration-time plot. From the half-life (kel: slope of concentration-time plot; half-life=In2/kel) the intrinsic clearances were calculated. Together with the additional parameters liver blood flow, amount of liver cells in vivo and in vitro.
as §1

A further data set concerns the target human P2X2/3 receptor (Homo sapiens (Human), UniProt P56373+Q9UBL9). Kind of data set: Intracellular calcium measurement (FLIPR, Fluo-4) of antagonist activity at human P2X2/3 receptor. Format: cell-based. The following applies: human P2X2/3, FLIPR Fluo-4 calcium, agonist α,β-Me-ATP at EC80; read-out: hP2X2/3 IC50. How it is done:
(§2) Intracellular Calcium Measurement to Assess Antagonist Activity at Human P2X3 and Human P2X2/3 Receptors
(§3) A fluorescent imaging plate reader (FLEX/FLIPR station; Molecular Devices) was used to monitor intracellular calcium levels using the calcium-chelating dye Fluo-4 (Molecular Probes). […] Cells expressing purinergic receptors P2X3 (human) or P2X2/3 (human) were plated at a density of 15,000 cells/well in collagen-coated 384-well plates approximately 20 hours before beginning the assay. […] The test compound was added in a volume of 5 μl and allowed to incubate for 30 min at 37° C. The final assay DMSO concentration is 1%.
(§4) The agonist, α,β-Me-ATP, was added in a volume of 20 μl at a concentration representing the EC80 value. The fluorescence was measured for an interval of 90 sec at 2 sec intervals and analyzed based on the increase in peak relative fluorescence units (RFU) compared to the basal fluorescence. Peak fluorescence was used to determine the response to agonist obtained at each concentration of test compound by the following equation: % Response=100*(RFU(test compound)−RFU(control))/(RFU(DMSO)−RFU(control))
(§5) The Examples were tested in triplicates per plate and mean values were plotted in Excel XLFit to determine IC5o values at the human P2X3 and human P2X2/3 receptors, percentage of maximal inhibition and the Hill coefficients.
In general terms: A change in cytosolic calcium serves as a functional read-out for many receptors and channels.

Another data set concerns the target human P2X3 receptor (Homo sapiens (Human), UniProt P56373). As to the kind of experiment: Intracellular calcium measurement (FLIPR, Fluo-4) of antagonist activity at human P2X3 receptor. Format: cell-based. The following applies: human P2X3, FLIPR Fluo-4 calcium, agonist α,β-Me-ATP at EC80; read-out: hP2X3 IC50. How it is done: as §2, §3, §4, §5
A further data set relates to vaginal hyperalgesia. As to the kind of experiment: Rat dyspareunia model (visceromotor response to vaginal distension). Format: in vivo, Sprague Dawley rats. The note with it: 15 mg/kg oral b.i.d. during 2 weeks.
For data set [2] the following is noted: clinical PhII trials; attributed to blockade of P2X2/3 channels; cited from earlier work.

This is an account of results in patent publication US10202369B2, “1,3-thiazol-2-yl substituted benzamides” (BAYER AKTIENGESELLSCHAFT, priority 2014, dated 2019).

Structures are written as SMILES.

human P2X2/3 receptor, sequence (P56373 whole entry): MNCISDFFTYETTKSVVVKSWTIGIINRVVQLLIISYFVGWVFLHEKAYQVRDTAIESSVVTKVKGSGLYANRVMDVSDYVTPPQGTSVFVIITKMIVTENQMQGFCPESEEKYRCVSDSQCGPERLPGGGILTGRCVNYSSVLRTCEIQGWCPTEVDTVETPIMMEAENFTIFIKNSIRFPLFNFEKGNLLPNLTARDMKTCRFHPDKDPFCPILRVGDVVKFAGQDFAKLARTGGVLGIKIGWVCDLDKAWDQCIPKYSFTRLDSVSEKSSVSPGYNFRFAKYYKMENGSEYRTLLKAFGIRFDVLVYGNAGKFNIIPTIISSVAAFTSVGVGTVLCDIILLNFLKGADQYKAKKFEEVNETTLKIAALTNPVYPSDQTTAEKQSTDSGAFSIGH
human P2X2/3 receptor, sequence (Q9UBL9 whole entry): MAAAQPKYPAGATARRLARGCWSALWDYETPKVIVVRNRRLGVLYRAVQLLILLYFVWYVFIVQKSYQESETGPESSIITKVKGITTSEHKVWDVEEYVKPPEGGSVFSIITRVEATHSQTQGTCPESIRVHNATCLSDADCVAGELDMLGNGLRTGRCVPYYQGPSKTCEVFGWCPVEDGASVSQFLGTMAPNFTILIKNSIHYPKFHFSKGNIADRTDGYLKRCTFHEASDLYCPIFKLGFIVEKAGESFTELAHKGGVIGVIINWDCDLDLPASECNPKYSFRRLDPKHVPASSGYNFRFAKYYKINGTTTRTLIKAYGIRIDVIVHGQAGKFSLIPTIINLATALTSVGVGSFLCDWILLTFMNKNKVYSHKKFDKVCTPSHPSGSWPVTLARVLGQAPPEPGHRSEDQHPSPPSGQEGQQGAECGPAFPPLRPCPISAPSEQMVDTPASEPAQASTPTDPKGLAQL
human P2X3 receptor, sequence (P56373 whole entry): as the sequence (P56373 whole entry) above
Source text for vaginal hyperalgesia: The visceromotor response (VMR) to vaginal distension was used in conscious animals as an objective measure of vaginal sensitivity. Briefly, animals in estrus phase were surgically implanted with biopsies of left uterine horn (3×3 mm) around alternate cascade mesenteric arteries that supply the small intestine (4 pieces) and on the wall of the distal colon (2 pieces). To measure VMR response, 2 Teflon-coated wire electrodes were sutured in the external oblique abdominal muscle, and tunneled subcutaneously to be exteriorized at the base of the neck for future access. On the day of VMR assessment, a lubricated small balloon (1 cm length) was inserted into the mid-vaginal canal. […] The electrodes were connected to an amplifier (Animal Bio Amp, ADlnstruments), and the abdominal electromyographic signal was recorded using a data acquisition system (PowerLab, ADlnstruments) for off-line analysis using LabChart version 7. The number of abdominal muscle contractions was counted manually for each 0.1 ml distension step, as an index of vaginal pain. […] All data were expressed as mean±standard deviation (s.d.), for the number (n) of measured rats per group. […] Planned comparison of means (matched-volume versus vehicle) was performed using a Bonferroni post hoc test, provided that a main effect was detected. […]

Consider `CCc1cnc(-c2cc(OC[C@H]3CN(C)CCO3)cc(C(=O)N[C@H](C)c3ccc(C(F)(F)F)nn3)c2)s1` [Example 419, 3-(5-ethyl-1,3-thiazol-2-yl)-5-{[(2R)-4-methyl-morpholin-2-yl]methoxy}-N-{(1R)-1-[6-(trifluoromethyl)pyridazin-3-yl]ethyl} benzamide], for which, in data set [1], the “Human liver microsome Fmax” value is reported as 74%. In the data set with rat hepatocytes, the “Rat hepatocyte Fmax” value was 51%.

For `Cc1cnc(-c2cc(OC(C)C(C)O)cc(C(=O)N[C@H](C)c3cnc(C(F)(F)F)nc3)c2)s1` (single isomer, unassigned) [Example 340], the “Human liver microsome Fmax” value in data set [1] is 90%. Moreover, the “Rat hepatocyte Fmax” value with rat hepatocytes is 64%.

On to `Cc1cnc(-c2cc(OC(C)C(C)O)cc(C(=O)N[C@H](C)c3cnc(C(F)(F)F)nc3)c2)s1` (single isomer, unassigned) [Example 163], for which the “Human liver microsome Fmax” value in data set [1] is listed as 100%. Besides, the “Rat hepatocyte Fmax” value with rat hepatocytes is 53%.

For `CCc1cnc(-c2cc(OC[C@H]3CCCO3)cc(C(=O)N[C@H](C)c3cnc(C)cn3)c2)s1` [Example 277, 3-(5-ethyl-1,3-thiazol-2-yl)-N-[(1R)-1-(5-methypyrazin-2-yl)ethyl]-5-[(3S)-tetrahydrofuran-3-ylmethoxy]benzamide], the IC50 was 96 nM at human P2X2/3 receptor and 6 nM at human P2X3 receptor.

On to `Cc1cnc(-c2cc(O[C@@H]3CCOC3)cc(C(=O)N[C@H](C)c3cnc(C(F)(F)F)nc3)c2)s1` [Example 11, 3-(5-Methyl-1,3-thiazol-2-yl)-5-[(3R)-tetrahydrofuran-3-yloxy]-N-{(1R)-1-[2-(trifluoromethyl)pyrimidin-5-yl]ethyl}benzamide], for which the “Vaginal hyperalgesia compared to vehicle-treated animals” value with vaginal hyperalgesia is given as “decreased vaginal hyperalgesia”. Also, the “Human liver microsome Fmax” value in data set [1] is on record as 57%. Also, the “Rat hepatocyte Fmax” value in the data set on rat hepatocytes is listed as 52%.

With `Cc1cnc(-c2cc(OC(C)C(C)O)cc(C(=O)N[C@H](C)c3cnc(C(F)(F)F)nc3)c2)s1` (single isomer, unassigned) [Example 339], in data set [1], the “Human liver microsome Fmax” value is recorded as 94%. Further, the “Rat hepatocyte Fmax” value in the data set on rat hepatocytes is on record as 52%.

For the molecule `Cc1cnc(-c2cc(OC(C)C(C)O)cc(C(=O)N[C@H](C)c3ccc(C(F)(F)F)nn3)c2)s1` (single isomer, unassigned) [Example 183], in data set [1], the “Human liver microsome Fmax” value was 74%. Moreover, the “Rat hepatocyte Fmax” value in the data set on rat hepatocytes is 43%.

Regarding `Cc1cnc(-c2cc(O[C@H]3CCOC3)cc(C(=O)N[C@H](C)c3cnc(C(F)(F)F)nc3)c2)s1` [Example 26, 3-(5-methyl-1,3-thiazol-2-yl)-5-[(3S)-tetrahydrofuran-3-yloxy]-N-{(1R)-1-[2-(trifluoromethyl)pyrimidin-5-yl]ethyl}benzamide], the “Human liver microsome Fmax” value in data set [1] is on record as 67%. Moreover, in the data set with rat hepatocytes, the “Rat hepatocyte Fmax” value is on record as 56%.

For the molecule `COc1cc(C(C)C)c(Oc2cnc(N)nc2N)cc1S(N)(=O)=O` [AF-219], the “taste disturbances in treated subjects” value in data set [2] was “taste disturbances”.
